# Data published in patent US20210392889A1, “COMPOSITIONS COMPRISING PYRIDINE CARBOXYLATE HERBICIDES WITH PDS INHIBITOR HERBICIDES” (Corteva Agriscience LLC, priority 2018, published 2021).
# Tests used:
# Experiment in all cases: Greenhouse postemergence herbicidal effect, visual injury after 20-22 d
# Assay type in all cases: in vivo
# [1] = tested on: large crabgrass (DIGSA, Digitaria sanguinalis); conditions: Table 4
# Source text: (§1) Seeds of the desired test plant species were planted in a 90:10% v/v (volume/volume) mixture of PRO-MIX® BX (Premier Tech Horticulture, Quakertown, Pa., USA) and PROFILE® GREENS GRADE™ (Profile Products LLC, Buffalo Grove, Ill., USA) planting mixture, which typically has a pH of 5.2 to 6.2 and an organic matter content of at least 50 percent, in plastic pots with a surface area of 103.2 square centimeters (cm^2). In some aspects, to ensure good germination and healthy plants, a fungicide treatment and/or other chemical or physical treatment was applied. The plants were grown for 7-36 days (d) in a greenhouse with an approximate 14-hour (h) photoperiod which was maintained at about 23° C. during the day and 22° C. during the night. Nutrients and water were added on a regular basis and supplemental lighting was provided with overhead metal halide 1000-Watt lamps as necessary. The plants were employed for testing when they reached the second or third true leaf stage.
# (§2) Emulsifiable concentrates of each of each pyridine carboxylate herbicide (Compound A or Compound B) were prepared at 100 grams acid equivalent per liter (g ae/L). The emulsifiable concentrates also included a safener, cloquintocet-mexyl, at 120 grams active ingredient per liter (g ai/L). An aliquot of each emulsifiable concentrate was placed in a 25 mL glass vial and diluted with an aqueous mixture of 1.25% (v/v) ACTIROB® B esterified rapeseed oil (Bayer Crop Science, Research Triangle Park, N.C., USA) or MSO® Concentrate with LECI-TECH® methylated soybean oil (Loveland Products, Loveland, Colo., USA) to obtain concentrated stock solutions at the highest application rate for each herbicide, based upon a 12 milliliter (mL) application volume at a rate of 187 liters per hectare (L/ha). The concentrated stock solutions were further diluted with an aqueous mixture of 1.25% v/v ACTIROB® B or MSO® Concentrate with LECI-TECH® to obtain stock solutions at reduced application rates for each herbicide. Spray solutions of the herbicide combinations (Compound A or Compound B plus PDS inhibitor herbicide) were prepared by adding weighed amounts or aliquots of the PDS inhibitor herbicide to the stock solutions of Compound A or Compound B to form 12-mL spray solutions in two- or three-way combinations.
# (§3) The spray solutions were applied to the plant material with an overhead Mandel track sprayer equipped with 8002E nozzles calibrated to deliver 187 L/ha over an application area of 0.503 square meters (m^2) at a spray height of 18 inches ([…] centimeters (cm)) above the average plant canopy. Control plants were sprayed in the same manner with the solvent blank. All pyridine carboxylate herbicide (component a) application rates are given as “g ae/ha” and all PDS inhibitor herbicide (component b) application rates are given as “g ai/ha.”
# (§4) The treated plants and control plants were placed in a greenhouse as described above and watered by sub-irrigation to prevent wash-off of the test compounds. After 20-22 d, the condition of the test plants as compared with that of the control plants was determined visually and scored on a scale of 0 to 100 percent where 0 corresponds to no injury and 100 corresponds to complete kill.
# [2] = tested on: common rice (ORYSA, Oryza sativa); conditions: Table 4
# Source text: as §1, §2, §3, §4
# [3] = tested on: ivyleaf morningglory (IPOHE, Ipomoea hederacea)
# Source text: as §1, §2, §3, §4
# [4] = tested on: Russian thistle (SASKR, Salsola kali); conditions: for visual injury: Table 1
# Source text: as §1, §2, §3, §4
# [5] = tested on: Canada thistle (CIRAR, Cirsium arvense); conditions: for visual injury: Table 1
# Source text: as §1, §2, §3, §4
# [6] = tested on: soybean (GLXMA=Glycine max); conditions: Table 4
# Source text: as §1, §2, §3, §4
# [7] = tested on: common lambsquarters (CHEAL, Chenopodium album L.); conditions: for visual injury: Table 1
# Source text: as §1, §2, §3, §4
# [8] = tested on: barnyardgrass (ECHCG, Echinochloa crus-galli); conditions: Table 4
# Source text: as §1, §2, §3, §4
# [9] = tested on: wild chamomile (MATCH, Matricaria chamomilla); conditions: for visual injury: Table 1
# Source text: as §1, §2, §3, §4
# [10] = tested on: kochia (KCHSC, Kochia scoparia); conditions: for visual injury: Table 1
# Source text: as §1, §2, §3, §4
structure (smiles),measurement,setting,value
"N#CCOC(=O)c1nc(-c2ccc3cc[nH]c3c2F)c(F)c(N)c1Cl [Compound A, cyanomethyl 4-amino-3-chloro-5-fluoro-6-(7-fluoro-1H-indol-6-yl)pyridine-2-carboxylate]",visual injury Obs,[1]; 7.5 g/ha,45%
same,visual injury Obs,[1]; 10 g/ha,25%
same,visual injury Obs,[2]; 7.5 g/ha,13%
same,visual injury Obs,[2]; 10 g/ha,10%
same,visual injury Obs,"[3]; 7.5 g/ha, Table 4",3%
same,visual injury Obs,"[3]; 7.5 g/ha, Table 5",5%
same,visual injury Obs,"[3]; 7.5 g/ha, Table 6",5%
same,visual injury Obs,"[3]; 10 g/ha, Table 4",8%
same,visual injury Obs,"[3]; 10 g/ha, Table 5",0%
same,visual injury Obs,"[3]; 10 g/ha, Table 6",0%
same,visual injury,[4]; 7.5 g/ha,60%
same,visual injury Obs,"[4]; 7.5 g/ha, Table 2",45%
same,visual injury Obs,"[4]; 7.5 g/ha, Table 3",38%
same,visual injury Obs,"[4]; 7.5 g/ha, Table 8",55%
same,visual injury,[4]; 10 g/ha,63%
same,visual injury Obs,"[4]; 10 g/ha, Table 2",60%
same,visual injury Obs,"[4]; 10 g/ha, Table 3",63%
same,visual injury Obs,"[4]; 10 g/ha, Table 8",58%
same,visual injury Obs,"[4]; 15 g/ha, Table 8",65%
same,visual injury,[5]; 7.5 g/ha,30%
same,visual injury Obs,"[5]; 7.5 g/ha, Table 3",10%
same,visual injury Obs,"[5]; 7.5 g/ha, Table 4",23%
same,visual injury Obs,"[5]; 7.5 g/ha, Table 5",25%
same,visual injury Obs,"[5]; 7.5 g/ha, Table 6",25%
same,visual injury Obs,"[5]; 7.5 g/ha, Table 7",18%
same,visual injury,[5]; 10 g/ha,40%
same,visual injury Obs,"[5]; 10 g/ha, Table 3",23%
same,visual injury Obs,"[5]; 10 g/ha, Table 4",20%
same,visual injury Obs,"[5]; 10 g/ha, Table 5",20%
same,visual injury Obs,"[5]; 10 g/ha, Table 6",20%
same,visual injury Obs,"[5]; 10 g/ha, Table 7",30%
same,visual injury Obs,[6]; 7.5 g/ha,93%
same,visual injury Obs,[6]; 10 g/ha,95%
same,visual injury,[7]; 7.5 g/ha,88%
same,visual injury Obs,"[7]; 7.5 g/ha, Table 2",70%
same,visual injury Obs,"[7]; 7.5 g/ha, Table 3",60%
same,visual injury Obs,"[7]; 7.5 g/ha, Table 4",97%
same,visual injury Obs,"[7]; 7.5 g/ha, Table 7",70%
same,visual injury Obs,"[7]; 7.5 g/ha, Table 8",70%
same,visual injury,[7]; 10 g/ha,93%
same,visual injury Obs,"[7]; 10 g/ha, Table 2",83%
same,visual injury Obs,"[7]; 10 g/ha, Table 3",90%
same,visual injury Obs,"[7]; 10 g/ha, Table 4",93%
same,visual injury Obs,"[7]; 10 g/ha, Table 7",78%
same,visual injury Obs,"[7]; 10 g/ha, Table 8",78%
same,visual injury Obs,"[7]; 15 g/ha, Table 8",83%
same,visual injury Obs,[8]; 7.5 g/ha,73%
same,visual injury Obs,[8]; 10 g/ha,78%
same,visual injury,[9]; 7.5 g/ha,20%
same,visual injury Obs,"[9]; 7.5 g/ha, Table 2",13%
same,visual injury Obs,"[9]; 7.5 g/ha, Table 3",0%
same,visual injury Obs,"[9]; 7.5 g/ha, Table 7",18%
same,visual injury Obs,"[9]; 7.5 g/ha, Table 8",8%
same,visual injury,[9]; 10 g/ha,30%
same,visual injury Obs,"[9]; 10 g/ha, Table 2",15%
same,visual injury Obs,"[9]; 10 g/ha, Table 3",33%
same,visual injury Obs,"[9]; 10 g/ha, Table 7",30%
same,visual injury Obs,"[9]; 10 g/ha, Table 8",15%
same,visual injury Obs,"[9]; 15 g/ha, Table 8",10%
same,visual injury,[10]; 7.5 g/ha,63%
same,visual injury Obs,"[10]; 7.5 g/ha, Table 2",50%
same,visual injury Obs,"[10]; 7.5 g/ha, Table 5",63%
same,visual injury Obs,"[10]; 7.5 g/ha, Table 6",63%
same,visual injury Obs,"[10]; 7.5 g/ha, Table 7",65%
same,visual injury Obs,"[10]; 7.5 g/ha, Table 8",70%
same,visual injury,[10]; 10 g/ha,63%
same,visual injury Obs,"[10]; 10 g/ha, Table 2",58%
same,visual injury Obs,"[10]; 10 g/ha, Table 5",65%
same,visual injury Obs,"[10]; 10 g/ha, Table 6",65%
same,visual injury Obs,"[10]; 10 g/ha, Table 7",70%
same,visual injury Obs,"[10]; 10 g/ha, Table 8",70%
same,visual injury Obs,"[10]; 15 g/ha, Table 8",70%
